PubChem BioAssay (NCI)
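Briefly, cells in 96-well plates were exposed to five compound concentrations for 48 h, and endpoints were estimated by linear interpolation. TGI: concentration producing complete growth inhibition.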

Assays:
Test in all cases: inhibition of tumour cell growth, NCI panel, 48 h
A498 renal = system: A498 renal
CAKI-1 renal = system: CAKI-1 renal
HL-60(TB) leukemia = system: HL-60(TB) leukemia
HOP-62 NSCLC = system: HOP-62 NSCLC
HOP-92 NSCLC = system: HOP-92 NSCLC
HT29 colon = system: HT29 colon
IGROV1 ovarian = system: IGROV1 ovarian
K-562 leukemia = system: K-562 leukemia
LOX IMVI melanoma = system: LOX IMVI melanoma
MALME-3M melanoma = system: MALME-3M melanoma
OVCAR-3 ovarian = system: OVCAR-3 ovarian
OVCAR-4 ovarian = system: OVCAR-4 ovarian
RPMI-8226 leukemia = system: RPMI-8226 leukemia
SN12C renal = system: SN12C renal
SNB-19 CNS = system: SNB-19 CNS
SNB-75 CNS = system: SNB-75 CNS
SW-620 colon = system: SW-620 colon
U251 CNS = system: U251 CNS
UACC-62 melanoma = system: UACC-62 melanoma
M14 melanoma = system: M14 melanoma

## N=[N+]=CC(=O)CCC(NC(=O)C(CCC(=O)C=[N+]=N)NC(=O)CCC(N)C(=O)O)C(=O)O (stereo unspecified)
A498 renal
  TGI: > 100 µM
CAKI-1 renal
  TGI: > 100 µM
HL-60(TB) leukemia
  TGI: > 100 µM
HOP-62 NSCLC
  TGI: > 100 µM
HOP-92 NSCLC
  TGI: > 100 µM
HT29 colon
  TGI: > 100 µM
IGROV1 ovarian
  TGI: > 100 µM
K-562 leukemia
  TGI: > 100 µM
LOX IMVI melanoma
  TGI: > 100 µM
MALME-3M melanoma
  TGI: > 100 µM
OVCAR-3 ovarian
  TGI: > 100 µM
OVCAR-4 ovarian
  TGI: > 100 µM
RPMI-8226 leukemia
  TGI: > 100 µM
SN12C renal
  TGI: > 100 µM
SNB-19 CNS
  TGI: > 100 µM
SNB-75 CNS
  TGI: > 100 µM
SW-620 colon
  TGI: > 100 µM
U251 CNS
  TGI: > 100 µM
UACC-62 melanoma
  TGI: > 100 µM

## C1CSC(=[N+]2CC[N+](=C3SCCS3)CC2)S1
A498 renal
  TGI: > 100 µM
CAKI-1 renal
  TGI: > 100 µM
HL-60(TB) leukemia
  TGI: > 100 µM
HOP-62 NSCLC
  TGI: > 100 µM
HOP-92 NSCLC
  TGI: > 100 µM
HT29 colon
  TGI: > 100 µM
IGROV1 ovarian
  TGI: > 100 µM
K-562 leukemia
  TGI: > 100 µM
LOX IMVI melanoma
  TGI: > 100 µM
M14 melanoma
  TGI: > 100 µM
MALME-3M melanoma
  TGI: > 100 µM
OVCAR-3 ovarian
  TGI: > 100 µM
OVCAR-4 ovarian
  TGI: > 100 µM
RPMI-8226 leukemia
  TGI: > 100 µM
SN12C renal
  TGI: > 100 µM
SNB-19 CNS
  TGI: > 100 µM
SNB-75 CNS
  TGI: > 100 µM
SW-620 colon
  TGI: > 100 µM
U251 CNS
  TGI: > 100 µM
UACC-62 melanoma
  TGI: > 100 µM

## Cc1ccc(N=Nc2ccc(N)cc2C)c(S(N)(=O)=O)c1
A498 renal
  TGI: > 100 µM
CAKI-1 renal
  TGI: > 100 µM
HL-60(TB) leukemia
  TGI: > 100 µM
HOP-62 NSCLC
  TGI: > 100 µM
HOP-92 NSCLC
  TGI: 99.5 µM
HT29 colon
  TGI: > 100 µM
IGROV1 ovarian
  TGI: > 100 µM
K-562 leukemia
  TGI: > 100 µM
LOX IMVI melanoma
  TGI: > 100 µM
M14 melanoma
  TGI: > 100 µM
MALME-3M melanoma
  TGI: > 100 µM
OVCAR-3 ovarian
  TGI: > 100 µM
OVCAR-4 ovarian
  TGI: > 100 µM
RPMI-8226 leukemia
  TGI: > 100 µM
SN12C renal
  TGI: > 100 µM
SNB-19 CNS
  TGI: > 100 µM
SNB-75 CNS
  TGI: > 100 µM
SW-620 colon
  TGI: > 100 µM
U251 CNS
  TGI: > 100 µM
UACC-62 melanoma
  TGI: > 100 µM

## CC(C)(C)C(=O)CP(=O)(O)O
A498 renal
  TGI: > 100 µM
CAKI-1 renal
  TGI: > 100 µM
HL-60(TB) leukemia
  TGI: > 100 µM
HOP-62 NSCLC
  TGI: > 100 µM
HOP-92 NSCLC
  TGI: > 100 µM
HT29 colon
  TGI: > 100 µM
IGROV1 ovarian
  TGI: > 100 µM
K-562 leukemia
  TGI: > 100 µM
LOX IMVI melanoma
  TGI: > 100 µM
M14 melanoma
  TGI: > 100 µM
MALME-3M melanoma
  TGI: > 100 µM
OVCAR-3 ovarian
  TGI: > 100 µM
OVCAR-4 ovarian
  TGI: > 100 µM
RPMI-8226 leukemia
  TGI: > 100 µM
SN12C renal
  TGI: > 100 µM
SNB-19 CNS
  TGI: > 100 µM
SNB-75 CNS
  TGI: > 100 µM
SW-620 colon
  TGI: > 100 µM
U251 CNS
  TGI: > 100 µM
UACC-62 melanoma
  TGI: > 100 µM

## C[n+]1c2ccccc2c(NC(CS)C(=O)O)c2ccccc21 (stereo unspecified)
A498 renal
  TGI: 53 µM
CAKI-1 renal
  TGI: 97.2 µM
HL-60(TB) leukemia
  TGI: 44.8 µM
HOP-62 NSCLC
  TGI: 73.5 µM
HOP-92 NSCLC
  TGI: 60.2 µM
HT29 colon
  TGI: > 100 µM
IGROV1 ovarian
  TGI: > 100 µM
K-562 leukemia
  TGI: > 100 µM
M14 melanoma
  TGI: > 100 µM
MALME-3M melanoma
  TGI: > 100 µM
OVCAR-3 ovarian
  TGI: 71.9 µM
OVCAR-4 ovarian
  TGI: > 100 µM
RPMI-8226 leukemia
  TGI: 53.9 µM
SN12C renal
  TGI: > 100 µM
SNB-19 CNS
  TGI: > 100 µM
SNB-75 CNS
  TGI: 73.5 µM
SW-620 colon
  TGI: > 100 µM
U251 CNS
  TGI: 89.4 µM
UACC-62 melanoma
  TGI: 34.2 µM

## C/C(=N\NC(=S)N1CCN(C)CC1)c1nc2ncccc2[nH]1
A498 renal
  TGI: > 100 µM
CAKI-1 renal
  TGI: > 100 µM
HL-60(TB) leukemia
  TGI: > 100 µM
HOP-62 NSCLC
  TGI: > 100 µM
HOP-92 NSCLC
  TGI: > 100 µM
HT29 colon
  TGI: > 100 µM
IGROV1 ovarian
  TGI: > 100 µM
K-562 leukemia
  TGI: > 100 µM
LOX IMVI melanoma
  TGI: > 100 µM
M14 melanoma
  TGI: > 100 µM
MALME-3M melanoma
  TGI: > 100 µM
OVCAR-3 ovarian
  TGI: > 100 µM
OVCAR-4 ovarian
  TGI: > 100 µM
RPMI-8226 leukemia
  TGI: > 100 µM
SN12C renal
  TGI: > 100 µM
SNB-19 CNS
  TGI: > 100 µM
SNB-75 CNS
  TGI: > 100 µM
SW-620 colon
  TGI: > 100 µM
U251 CNS
  TGI: > 100 µM
UACC-62 melanoma
  TGI: > 100 µM

## OC(c1cc(-c2ccc(Cl)cc2)nc2ccccc12)C1CCCCN1 (stereo unspecified)
A498 renal
  TGI: 3.54 µM
CAKI-1 renal
  TGI: 6.44 µM
HL-60(TB) leukemia
  TGI: 4.61 µM
HOP-62 NSCLC
  TGI: 3.13 µM
HOP-92 NSCLC
  TGI: 12.2 µM
HT29 colon
  TGI: 3.82 µM
K-562 leukemia
  TGI: 3.13 µM
LOX IMVI melanoma
  TGI: 2.09 µM
M14 melanoma
  TGI: 3.37 µM
MALME-3M melanoma
  TGI: 2.94 µM
OVCAR-3 ovarian
  TGI: 3.98 µM
OVCAR-4 ovarian
  TGI: 5.11 µM
RPMI-8226 leukemia
  TGI: 3.12 µM
SN12C renal
  TGI: 3.54 µM
SNB-19 CNS
  TGI: 37.6 µM
SW-620 colon
  TGI: 3.69 µM
U251 CNS
  TGI: 3.25 µM
UACC-62 melanoma
  TGI: 3.43 µM
